Reference: PMC9516332 (Frontiers in Oncology, 2022)
Where two headings read alike, the source gives them in different places.

Key:
Test in all cases: Kinase panel profiling at 1 µmol/L (MSA or IMAP), percentage inhibition
Assay type in all cases: biochemical
[1] = target: T1, panel of 255 wild-type kinases (Homo sapiens, UniProt O14965); conditions: 1 µmol/L single concentration
T1 sequence (O14965 1-403): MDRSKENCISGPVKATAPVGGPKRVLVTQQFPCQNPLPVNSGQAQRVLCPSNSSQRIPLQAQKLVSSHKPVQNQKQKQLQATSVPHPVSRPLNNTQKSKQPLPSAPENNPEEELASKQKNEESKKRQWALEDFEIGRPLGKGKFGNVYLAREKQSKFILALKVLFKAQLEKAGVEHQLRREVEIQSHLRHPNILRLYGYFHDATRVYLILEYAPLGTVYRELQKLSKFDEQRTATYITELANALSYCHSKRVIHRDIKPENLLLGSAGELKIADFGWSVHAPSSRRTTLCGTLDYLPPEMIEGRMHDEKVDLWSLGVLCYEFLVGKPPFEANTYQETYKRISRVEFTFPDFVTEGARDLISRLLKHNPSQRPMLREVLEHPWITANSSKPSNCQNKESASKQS

[2] = target: panel of 255 wild-type kinases (Homo sapiens, UniProt O75116); conditions: kinase ROCK2; 1 µmol/L single concentration; read-out: %-inhibition at 1 µmol/L, ROCK2
[3] = target: panel of 255 wild-type kinases (Homo sapiens, UniProt P06239); conditions: read-out: %-inhibition at 1 µmol/L, LCK
[4] = target: panel of 255 wild-type kinases (Homo sapiens, UniProt P49760); conditions: kinase CLK2; 1 µmol/L single concentration; read-out: %-inhibition at 1 µmol/L, CLK2
[5] = target: T2, panel of 255 wild-type kinases (Homo sapiens, UniProt P54760); conditions: kinase EPHB4; 1 µmol/L single concentration; read-out: %-inhibition at 1 µmol/L, EPHB4
T2 sequence (P54760 16-987): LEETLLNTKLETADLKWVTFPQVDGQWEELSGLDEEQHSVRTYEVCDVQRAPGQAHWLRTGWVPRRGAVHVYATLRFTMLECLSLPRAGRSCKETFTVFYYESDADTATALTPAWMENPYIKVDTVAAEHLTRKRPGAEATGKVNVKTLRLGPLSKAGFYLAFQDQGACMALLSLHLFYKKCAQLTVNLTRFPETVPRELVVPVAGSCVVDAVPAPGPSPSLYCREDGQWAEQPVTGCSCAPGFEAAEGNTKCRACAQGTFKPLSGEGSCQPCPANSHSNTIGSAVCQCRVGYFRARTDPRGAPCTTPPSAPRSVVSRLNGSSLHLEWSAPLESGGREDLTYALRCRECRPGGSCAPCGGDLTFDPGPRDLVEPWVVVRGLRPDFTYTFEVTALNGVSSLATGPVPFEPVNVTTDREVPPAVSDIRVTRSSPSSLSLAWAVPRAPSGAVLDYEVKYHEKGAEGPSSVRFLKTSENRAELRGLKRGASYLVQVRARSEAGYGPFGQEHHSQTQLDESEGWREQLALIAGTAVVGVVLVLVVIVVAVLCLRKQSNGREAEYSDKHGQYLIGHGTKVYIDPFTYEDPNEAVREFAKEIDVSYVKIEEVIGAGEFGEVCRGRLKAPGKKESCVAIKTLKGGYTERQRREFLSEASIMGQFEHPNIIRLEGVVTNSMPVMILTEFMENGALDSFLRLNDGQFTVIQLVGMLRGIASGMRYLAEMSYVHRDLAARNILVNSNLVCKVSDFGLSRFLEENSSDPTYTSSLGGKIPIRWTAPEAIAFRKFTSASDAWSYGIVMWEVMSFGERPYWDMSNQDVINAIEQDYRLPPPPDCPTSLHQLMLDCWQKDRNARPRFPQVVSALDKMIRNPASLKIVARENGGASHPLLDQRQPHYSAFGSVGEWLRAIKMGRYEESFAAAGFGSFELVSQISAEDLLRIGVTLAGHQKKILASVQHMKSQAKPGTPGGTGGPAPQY

[6] = target: panel of 255 wild-type kinases (Homo sapiens, UniProt Q13164); conditions: kinase Erk5; 1 µmol/L single concentration; read-out: %-inhibition at 1 µmol/L, Erk5
[7] = target: panel of 255 wild-type kinases (Homo sapiens, UniProt Q13554); conditions: CaMK2β kinase assay; 1 µmol/L single concentration; read-out: %-inhibition CaMK2β
[8] = target: panel of 255 wild-type kinases (Homo sapiens, UniProt Q14012); conditions: CaMK1α kinase assay; 1 µmol/L single concentration; read-out: %-inhibition CaMK1α
[9] = target: panel of 255 wild-type kinases (Homo sapiens, UniProt Q15759); conditions: p38β; 1 µmol/L single concentration; read-out: %-inhibition, p38β
[10] = target: panel of 255 wild-type kinases (Homo sapiens, UniProt Q8N4C8); conditions: MINK; 1 µmol/L single concentration; read-out: %-inhibition, MINK
[11] = target: panel of 255 wild-type kinases (Homo sapiens, UniProt Q9H422); conditions: kinase HIPK3; 1 µmol/L single concentration; read-out: %-inhibition at 1 µmol/L, HIPK3
[12] = target: panel of 255 wild-type kinases (Homo sapiens, UniProt Q9UBS0); conditions: p70S6Kβ; 1 µmol/L single concentration; read-out: %-inhibition, p70S6Kβ
[13] = AurA kinase assay, read-out: %-inhibition AurA
[14] = AurA/TPX2 kinase assay, read-out: %-inhibition AurA/TPX2
[15] = kinase LCK, 1 µmol/L single concentration

| inhibition at 1 µM [3] | Compound | inhibition at 1 µM [1, 13] | inhibition at 1 µM [1, 14] | inhibition at 1 µM [2] | inhibition at 1 µM [3, 15] | inhibition at 1 µM [4] | inhibition at 1 µM [5] | inhibition at 1 µM [6] | inhibition at 1 µM [7] | inhibition at 1 µM [8] | inhibition at 1 µM [9] | inhibition at 1 µM [10] | inhibition at 1 µM [11] | inhibition at 1 µM [12] |
| --- | --- | --- | --- | --- | --- | --- | --- | --- | --- | --- | --- | --- | --- | --- |
| – | COC(=O)N[C@@H](C)CNc1nccc(-c2cn(C(C)C)nc2-c2cc(Cl)cc(NS(C)(=O)=O)c2F)n1 [encorafenib] | 0.211% | -3.31% | 1.32% | 1.39% | 0.465% | -0.672% | 9% | 4.23% | 2.72% | 56% | 1.29% | 5.63% | 8% |
| – | CCc1nc(C(N)=O)c(Nc2ccc(N3CCC(N4CCN(C)CC4)CC3)c(OC)c2)nc1NC1CCOCC1 [gilteritinib] | 80% | 71% | 66% | 97% | 39% | 74% | 38% | 24% | 41% | 6% | 80% | 66% | 23% |
| – | O=C(Nc1cnn2ccc(N3CCC[C@@H]3c3cc(F)ccc3F)nc12)N1CC[C@H](O)C1 [larotrectinib] | -4.5% | -3% | -3.33% | 1.14% | 9% | -2.17% | 1.26% | 0.902% | -1.63% | -0.0712% | -2.24% | -4% | 4.22% |
| – | C[C@H]1Oc2cc(cnc2N)-c2c(nn(C)c2C#N)CN(C)C(=O)c2ccc(F)cc21 [lorlatinib] | 21% | 29% | 3.28% | 24% | 2.49% | 43% | 38% | -3.21% | 1.49% | 1.15% | -0.198% | 0.506% | 11% |
| – | CCN1C(=O)N(c2c(F)c(OC)cc(OC)c2F)Cc2cnc3[nH]c(CN4CCOCC4)cc3c21 [pemigatinib] | 11% | -4.43% | -5% | 17% | 6.37% | -3% | 97% | 9% | 12% | 6% | -4.31% | 0.456% | -0.851% |
| – | FC(F)(F)c1ccc(CNc2ccc(Cc3c[nH]c4ncc(Cl)cc34)cn2)cn1 [pexidartinib] | 44% | 21% | 0.233% | 51% | 3.48% | -2% | 10% | 3% | -13% | 0.844% | 9% | 3.52% | 7% |
| – | CO[C@]1(C(=O)N[C@@H](C)c2ccc(-n3cc(F)cn3)nc2)CC[C@H](c2nc(C)cc(Nc3cc(C)[nH]n3)n2)CC1 [pralsetinib] | 73% | 70% | 1.29% | 98% | 9.51% | 56% | 0.775% | -0.895% | -4.72% | -3.42% | -3.43% | 9% | 5.54% |
| – | CCn1c(=O)c(-c2cc(NC(=O)Nc3ccccc3)c(F)cc2Br)cc2cnc(NC)cc21 [ripretinib] | -2% | -0.807% | -1.2% | 99% | -4% | 90% | 0.452% | 1.19% | -8% | 88% | 3.55% | 4% | 2.19% |
| – | COc1ccc(CN2C3CC2CN(c2ccc(-c4cc(OCC(C)(C)O)cn5ncc(C#N)c45)cn2)C3)cn1 [selpercatinib] | 66% | 71% | -0.275% | 77% | -2.3% | 73% | 4% | 1.27% | -5.55% | -1.85% | -5.33% | -3% | 6.63% |
| – | Cn1cnc2c(F)c(Nc3ccc(Br)cc3Cl)c(C(=O)NOCCO)cc21 [selumetinib] | -5.67% | -8% | 2.83% | 8% | 7% | 0.674% | 2.36% | -0.923% | -4.36% | -1.71% | -4.5% | 3% | 8% |
| 20% | Cc1cc(Nc2ncnc3ccc(NC4=NC(C)(C)CO4)cc23)ccc1Oc1ccn2ncnc2c1 [tucatinib] | -1.53% | -9% | -1.34% | – | 5% | -0.489% | -1.07% | 1.33% | -5.47% | -3.42% | -4.35% | 2.27% | 3.57% |
| – | C=CC(=O)N1CCC([C@@H]2CCNc3c(C(N)=O)c(-c4ccc(Oc5ccccc5)cc4)nn32)CC1 [zanubrutinib] | -1.42% | -0.885% | -3.24% | 67% | 7.62% | -2.82% | 3.76% | 2.44% | -0.157% | 4.54% | -1.27% | -2.42% | -0.467% |
